Data on ten molecules can be found in US20230076411A1, “LASSO PEPTIDES FOR TREATMENT OF CANCER” (Lassogen, Inc., priority 2020, published 2023).

Experiment [1] relates to human melanoma cell lines RPMI-7951, SK MEL 28, SK MEL 31, SK MEL 24, A375. The experiment in a line: Melanoma cell growth inhibition (Cell Titer-Glo 2.0 Luminescent Cell Viability Assay). Type of experiment: cell-based. The conditions noted are these: 72 hours incubation with compounds. The text has this: The Cell Titer-Glo® 2.0 Luminescent Cell Viability Assay is a sensitive homogeneous method to determine the number of viable cells in culture. Detection is based on using the luciferase reaction to measure the amount of ATP from viable cells. The amount of ATP in cells correlates with cell viability. Within minutes after a loss of membrane integrity, cells lose the ability to synthesize ATP, and endogenous ATPases destroy any remaining ATP; thus the levels of ATP fall precipitously. The Cell Titer-Glo® 2.0 Reagent does three things upon addition to cells. It lyses cell membranes to release ATP; it inhibits endogenous ATPases, and it provides luciferin, luciferase and other reagents necessary to measure ATP using a bioluminescent reaction. The unique properties of a proprietary stable luciferase. There is a linear relationship (r2=0.99) between the luminescent signal and the number of cells from 0 to 50.000 cells per well. […]
Conditions: 37° C., air 95%; HEPA-filtered carbon dioxide (CO2) 5%, humidified atmosphere. • Cells are grown in 175 cm^2 flasks to 80-90% of confluency. • Culture media are aspirated and cell layer is briefly rinsed with Versen solution to remove all traces of serum. • 2 mL of Accutase is added to cells. • Flasks are returned to incubator for 5 min to allow cell detachment. • Add 6.0 mL of complete growth medium. • Single cell suspension is created by gently pipetting. • Cells are counted using a Hematocytometer and a suspension with the desired cell concentration is prepared. […]
Stock solutions (70 μL) are diluted with cell culture media to produce 500× serial dilutions and 10 of final compound dilutions are added to cells in assay plates to screen a series of 10 doses starting at […]. […] Luminescence intensity is measured for each well using the Tecan M 1000 microplate reader after 5 min of incubation with the Cell Titer-Glo® 2.0. The number of viable cells in culture is determined based on quantitation of the ATP present in each culture well. […] P values are calculated by using the Student's t test for absolute values. […]
On the technique in general: ATP-based viability assays read luminescence as a measure of living cells.

In experiment [2] the target is T1, endothelin B receptor (ETBR) (Homo sapiens, UniProt P24530).
T1 sequence (P24530 27-442): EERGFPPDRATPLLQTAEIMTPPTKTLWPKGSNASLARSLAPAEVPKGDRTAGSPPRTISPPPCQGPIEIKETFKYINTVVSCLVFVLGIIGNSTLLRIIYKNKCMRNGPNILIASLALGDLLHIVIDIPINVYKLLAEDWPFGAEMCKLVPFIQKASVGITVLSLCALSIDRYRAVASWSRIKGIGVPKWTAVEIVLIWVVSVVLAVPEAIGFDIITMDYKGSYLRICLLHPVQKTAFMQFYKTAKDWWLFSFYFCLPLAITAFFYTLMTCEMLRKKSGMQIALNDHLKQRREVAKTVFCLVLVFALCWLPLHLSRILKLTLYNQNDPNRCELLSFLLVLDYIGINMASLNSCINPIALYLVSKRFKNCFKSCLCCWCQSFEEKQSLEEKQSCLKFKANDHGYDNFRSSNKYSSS
The experiment in a line: IC50 of BQ-788 against ETAR and ETBR (FIG. 3B). Type of experiment: binding. To be noted: from IC50 against ETAR and ETBR.

The target in experiment [3] is endothelin A receptor (ETAR) (Homo sapiens, UniProt P25101). The experiment in a line: ETAR IC50 (nM). The source says:
Table printed on a drawing sheet, FIG. 3
Head of the field: ETAR IC50 (nM)

Experiment [4] addresses human recombinant endothelin B receptor (ETBR) (human) (UniProt P24530). Put plainly: not stated on the sheet or in the legend; the receptor source, species and competing ligand are not given, and the value may come from the literature.
The target in the next experiment is T2, ETBR receptors (Homo sapiens, UniProt P24530).
T2 sequence (P24530 27-442): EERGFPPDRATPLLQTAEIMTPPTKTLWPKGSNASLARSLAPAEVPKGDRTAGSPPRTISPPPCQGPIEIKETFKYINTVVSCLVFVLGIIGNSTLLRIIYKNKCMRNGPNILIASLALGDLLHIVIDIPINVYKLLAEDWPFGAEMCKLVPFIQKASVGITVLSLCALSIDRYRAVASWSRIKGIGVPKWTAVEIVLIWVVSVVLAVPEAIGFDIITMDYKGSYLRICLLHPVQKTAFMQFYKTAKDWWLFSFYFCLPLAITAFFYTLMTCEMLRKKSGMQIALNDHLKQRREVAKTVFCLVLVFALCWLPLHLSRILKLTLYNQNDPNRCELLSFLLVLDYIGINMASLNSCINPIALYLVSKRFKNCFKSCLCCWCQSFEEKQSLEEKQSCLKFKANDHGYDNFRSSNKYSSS
To be noted: physiological concentrations; cited from earlier work.

The target in experiment [5] is T3, human recombinant ETB receptor (ETBR) (Homo sapiens, UniProt P24530).
T3 construct: expressed in transfected cells; host or cells: CHO cells, stably transfected (vector pME18S-FL3); membranes prepared from them
T3 sequence (P24530 27-442): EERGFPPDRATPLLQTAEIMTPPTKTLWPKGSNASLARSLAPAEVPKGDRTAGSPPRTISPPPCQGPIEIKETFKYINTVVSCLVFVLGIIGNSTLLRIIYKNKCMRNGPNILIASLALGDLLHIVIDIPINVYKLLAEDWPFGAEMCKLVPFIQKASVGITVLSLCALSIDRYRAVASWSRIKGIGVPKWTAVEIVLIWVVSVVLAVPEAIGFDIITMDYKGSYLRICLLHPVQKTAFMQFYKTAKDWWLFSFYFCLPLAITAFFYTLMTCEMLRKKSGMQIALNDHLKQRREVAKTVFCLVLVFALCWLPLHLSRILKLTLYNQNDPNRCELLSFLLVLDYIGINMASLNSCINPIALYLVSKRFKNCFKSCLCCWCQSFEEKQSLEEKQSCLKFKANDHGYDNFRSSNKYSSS
Put plainly: ET-1 Receptor Binding Assay ([125I]ET-1, CHO cell membranes expressing ETBR). The procedure:
Preparation of Membranes. CHO cell membranes are prepared by washing ETAR- or ETBR-transfected cells with phosphate buffered saline and centrifugation. […] The homogenates are centrifuged at 8,000×g for 10 minutes and supernatants are then centrifuged at 40,000×g for 1 hour at 4° C. The pellets are homogenized in buffer A and recentrifuged at 40,000×g for 1 hour.
(§1) The glass filters are washed three times with cold 50 mM Tris-HCl buffer containing 1 mM EDTA. The radioactivity on the washed filter is measured by using a Packard γ counter.

In experiment [6] the target is T4, human recombinant endothelin B receptor (ETBR) (human, UniProt P24530 27-442).
T4 construct: whole, on cells; The assay used membranes prepared from CHO-ETBR cells; also called ETB receptor; endothelin receptor type B
T4 sequence (looked up): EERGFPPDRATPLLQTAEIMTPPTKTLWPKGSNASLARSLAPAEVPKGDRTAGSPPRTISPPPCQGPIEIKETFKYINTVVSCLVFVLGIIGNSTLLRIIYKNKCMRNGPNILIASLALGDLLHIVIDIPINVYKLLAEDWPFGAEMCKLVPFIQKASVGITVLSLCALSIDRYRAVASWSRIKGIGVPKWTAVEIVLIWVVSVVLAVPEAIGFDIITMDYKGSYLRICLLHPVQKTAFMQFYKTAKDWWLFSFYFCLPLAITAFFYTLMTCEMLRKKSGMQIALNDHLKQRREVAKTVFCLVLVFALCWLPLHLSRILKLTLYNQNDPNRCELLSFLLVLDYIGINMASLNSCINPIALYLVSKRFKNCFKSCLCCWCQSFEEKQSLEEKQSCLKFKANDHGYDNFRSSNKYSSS
The experiment in a line: displacement of [125I]ET-1 from CHO-ETBR membranes, filtration. The protocol: Preparation of Membranes. CHO cell membranes are prepared by washing ETAR- or ETBR-transfected cells with phosphate buffered saline and centrifugation. The resulting cell pellets are homogenized with a polytron (settings 8 for 30 seconds×2) in 5 volumes of buffer A containing 1 mM NaHCO₃, 5 mM EDTA (pH 8.3), 5 μg/ml Leupeptin, 5 μg/ml Pepstatin A, and 40 μM phenylmethylsulfonyl fluoride. The homogenates are centrifuged at 8,000×g for 10 minutes and supernatants are then centrifuged at 40,000×g for 1 hour at 4° C. The pellets are homogenized in buffer A and recentrifuged at 40,000×g for 1 hour. The resulting pellets are homogenized in buffer A supplemented with 130 mM NaCl, 5 mM Na₂HPO₄, and 1.5 mM KH₂PO₄ and stored at −70° C.
as §1
On the technique in general: Displacement assays read how much labelled ligand stays bound in the presence of the test substance.

Positions of bridges follow the written chain, without caps; N, C: chain ends. Non-standard residues stand in square brackets, D forms with d. Residues, ends and D or L forms follow the SMILES beside them. No end group written: not given here. Trp(7-OH) = N[C@@H](Cc1c[nH]c2c(O)cccc12)C(=O)O; 2Nal = N[C@@H](Cc1ccc2ccccc2c1)C(=O)O

For `CC(C)C[C@@H]1NC(=O)[C@@H](C(C)C)NC(=O)[C@@H]2CCCN2C(=O)[C@@H](CC(=O)O)NC(=O)[C@@H](Cc2c[nH]c3ccccc23)NC1=O` [BQ-123] (cyclo(L[dW][dD]P[dV])), the “growth of all tested human melanoma cell lines” value (from here on “growth”) in experiment [1] is given as “not”.

Broadly, the IC50 is the point on the concentration scale where inhibition reaches its midpoint. On to `CCCC[C@@H](NC(=O)[C@@H](Cc1cn(C(=O)OC)c2ccccc12)NC(=O)[C@H](CC(C)(C)C)NC(=O)N1[C@H](C)CCC[C@@H]1C)C(=O)O` [BQ-788], for which the “binding selectivity ETBR over ETAR” value in experiment [2] was “selectively binds to ETBR over ETAR”. The “growth” value in experiment [1] is “inhibited”. The molecule further came in with a 50% inhibitory concentration (IC50) in experiment [3] of 280 nM.

For the molecule BQ-788 (peptide), in experiment [4], the IC50 is 1.2 nM.

As usually defined, the Kd is the concentration at which binding is half-saturated. As to “ET-2: cognate endothelin ligand, 21-amino acid peptide (CSCSSWLDKECVYFCHLDIIW; ends and bridges not checked; cysteine pairing not given here; UniProt P20800 49-69, looked up)”, the equilibrium dissociation constant (Kd) with ETBR receptors was 0.015 nM.

On to GNWHGTAPDWFFNYYW [Lasso 1], for which the “growth” value in experiment [1] is given as “inhibited”.

As for “MTEQSEQTPAEYIPPMLVEVGEFTEDTLGNWHGTAPDWFFNYYW [Lasso 18]”, the half-inhibitory concentration (IC50) in experiment [5] is over 5000 nM.

For the molecule “MTEQSEQTPAEYIPPMLVEVGEFTEDTLGNWHGTSPDWFFNYYW [Lasso 20]”, the half-maximal inhibitory concentration (IC50) in experiment [5] was over 5000 nM.

For GNWHGTAPDWFFNYY[2Nal] (lactam N-9, also called Lasso 54) [lasso peptide having primary sequence of SEQ ID NO: 54], the 50% inhibitory concentration (IC50) in experiment [6] was determined as 6.3 nM.

In the case of GNWHGTSPDWFFNYY[Trp(7-OH)] (lactam N-9, also called Lasso 4) [lasso peptide having primary sequence of SEQ ID NO: 4], the IC50 in experiment [6] came to 8 nM.

For the molecule GNWHGTAPDWFFNYYNIIW (lactam N-9, also called Lasso 48) [lasso peptide having primary sequence of SEQ ID NO: 48], the IC50 in experiment [6] was over 70 nM.
